The results in this text go back to patent US4065453A, “Levorotatory molindone and the use as an antidepressant” (Endo Laboratories, Inc., priority 1976, dated 1977).

Assay [1] can be described thus: Rat Conditioned Avoidance Response (rat CAR). It counts as in vivo. Particulars: for ED50: po, rat, p.o., block of conditioned avoidance response in 50% of rats, tested 1, 2 and 4 hours after dosing, column 4. As for the experimental part: Blocking of CAR in rats at nontoxic doses correlates with major tranquilizer activity in man. Rats are trained to jump out of a pit onto a ledge to avoid shock when presented with a conditioned stimulus of light and sound. Three or four doses of durg are given to a group of 4-8 rats. The animals are tested 1, 2 and 4 hours after dosing. A quantal ED50 is calculated as the dose which would block the CAR in 50% of the rats. The results are given in mg/kg., p.o. (Table 1) The ED50 's for the compound of the present invention and for the molindone racemic mixture are given in the following table, along with certain appropriate ratios: […]

A short description of assay [2]: Tetrabenazine Antagonism (Anti-TBZ). It is filed as in vivo, mouse (Carworth CF1 S female mice). Particulars: for ED50: po, 1 h, mouse, p.o., tetrabenazine 32 mg/kg i.p. 30 min after compound. On the procedure: Groups of 10 Carworth CF1 S female mice, 18-21 g each, were fasted 1.5 hours and were incubated with antagonist compounds at oral doses of 0, 5, 25, and 125 mg/kg or 0, 1, 3, 9, 27, and 81 mg/kg in 0.20 ml of 1% Methocel. The mice were challenged 30 minutes later with tetrabenazine (as the methanesulfonate), 32 mg/kg intraperitoneally (dissolved in 0.20 ml 0.05M KCl at pH 2.0). One hour after antagonist (30 minutes after tetrabenzaine), the mice were examined for signs of exploratory activity and ptosis (eyelid closure). Normal exploratory activity (relief from sedation) was recorded when a mouse lifted by the tail from a group of 10 in a testing box and placed on a stainless steel testing box lid (12.5 × 8 inches with 0.33 inch mesh) either turned its head horizontally 30° in both directions or moved to the edge of the screen within 10 seconds after being placed on the screen. Relief from ptosis was recorded when exactly two seconds after placing the mouse facing the observer, lid closure was less than 50% in both eyes.
The ED50 's for the compound of the present invention and for the molindone racemic mixture are given in the following table, along with certain appropriate ratios: […]

The nature of assay [3]: Exploratory Loss. The note with it: for ED50: po, mouse, p.o., loss of exploratory activity, column 3, read-out: ED50 mouse EXPL. LOSS. It is filed as in vivo, mouse. From the text:
The mouse is placed on a stainless steel wire mesh screen (8 × 12 inches, 3 mesh per inch, 1/4inch mesh openings) "shoe-box" lid (1inch high) and is observed for normal activities, such as nose movements, head movements with apparent visual examination of the area, and/or walking around on the screen. Normal mice respond within 2 to 3 seconds. Absence of or a marked depression of these activities for 5 seconds constitutes a loss of exploratory activity. The ED50 's for the compound of the present invention and for the molindone racemic mixture are given in the following table, along with certain appropriate ratios: […]

The mark [4] stands for this setting: relief from ptosis, column 1, read-out: ED50 mouse ANTI-TBZ ptosis.
Setting [5] is: relief from sedation (exploratory activity), column 2, read-out: ED50 mouse ANTI-TBZ expl. loss.

A word on the ED50: it is the midpoint of the dose-response relation. Regarding `CCc1c(C)[nH]c2c1C(=O)C(CN1CCOCC1)CC2` (racemic) [(±)-molindone, 3-ethyl-6,7-dihydro-2-methyl-5(morpholinomethyl)indol-4(5H)-one, reference compound], the ED50 was 28 mg/kg in assay [1], 7.2 mg/kg in assay [2] (setting [4]), 9 mg/kg in assay [2] (setting [5]) and 38 mg/kg in assay [3].

Take `CCc1c(C)[nH]c2c1C(=O)C(CN1CCOCC1)CC2` (single isomer, unassigned; (-)) [(-)-molindone]: the “tranquilizer activity compared with the racemate” value in assay [1] (in words) is “approximately the same sedative and tranquilizer activity as the racemate”. Besides, the ED50 worked out at 21 mg/kg in assay [1], 2.7 mg/kg in assay [2] (setting [4]), 3.4 mg/kg in assay [2] (setting [5]) and 25 mg/kg in assay [3]. Besides, the “antidepressant activity compared with the racemate” value in assay [2] (in words) is recorded as “significantly greater antidepressant activity”. Moreover, in assay [3] (as compared with the racemate, from the ratios in the table, in words), the “separation of the antidepressant activity from the sedative activity” value is “clear separation of the antidepressant activity from the sedative activity”. Further, the “sedative activity compared with the racemate” value in assay [3] (in words) is “approximately the same sedative and tranquilizer activity as the racemate”.
